Values quoted from earlier work in patent US20070135444A1, “Treatment of neuroblastoma” (priority 2002, published 2007).

Conditions: pediatric phase I trial; no maximal dose tolerated reached up to this dose

Question: With `CS(=O)(=O)O.Cc1ccc(NC(=O)c2ccc(CN3CCN(C)CC3)cc2)cc1Nc1nccc(-c2cccnc2)n1` [SALT I] as the molecule, how does the maximal dose tolerated read?
Answer: > 570 mg/m^2/day
